Experimental data: patent publication US12077503B2, “Substituted cyclic amides and their use as herbicides” (FMC CORPORATION, priority 2015, dated 2024)

How the values were obtained:
Format in all cases: in vivo
[1] = test system: corn (Zea mays); assay: Test G Pre-Emergence Protocol; settings: Zea mays, pre-emergence, 312 h, evaluated after 13 days; for plant injury at 15.625 g/ha: 15.625 g ai/ha; for plant injury at 15.625 g/ha / plant injury at 250 g/ha: read-out: Corn damage rating (100=total damage to plant; 0=no damage to plant); for plant injury at 62.5 g/ha: 62.5 g ai/ha, 100=total damage to plant, 0=no damage to plant, read-out: plant damage rating, Corn; for plant injury at 250 g/ha: 250 g ai/ha
Procedure, shortened: (§1)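 Test compound in 0.5% Tween 20 acetone/water (50:50) was applied at three rates (15.625, 62.5, 250 g/ha) to soil sown one day earlier. After 13 days plants were scored for injury, where 0 means unaffected and 100 means completely damaged.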

[2] = test system: barnyardgrass (Echinochloa crus-galli); assay: Test G Pre-Emergence Protocol; settings: Echinochloa crus-galli, pre-emergence, 312 h, evaluated after 13 days; for pest or weed control at 15.625 g/ha: 15.625 g ai/ha, read-out: Barnyard grass damage rating (100=total damage to plant; 0=no damage to plant); for pest or weed control at 62.5 g/ha: 62.5 g ai/ha, 100=total damage to plant, 0=no damage to plant, read-out: plant damage rating, Barnyardgrass; for pest or weed control at 250 g/ha: 250 g ai/ha, read-out: Barnyardgrass damage rating (100=total damage to plant; 0=no damage to plant)
Procedure, shortened: as §1

[3] = test system: velvetleaf (Abutilon theophrasti); assay: Test G Pre-Emergence Protocol; settings: Abutilon theophrasti, pre-emergence, 312 h, evaluated after 13 days; for pest or weed control at 15.625 g/ha: 15.625 g ai/ha; for pest or weed control at 15.625 g/ha / pest or weed control at 250 g/ha: read-out: Velvetleaf damage rating (100=total damage to plant; 0=no damage to plant); for pest or weed control at 62.5 g/ha: 62.5 g ai/ha, 100=total damage to plant, 0=no damage to plant, read-out: plant damage rating, Velvetleaf; for pest or weed control at 250 g/ha: 250 g ai/ha
Procedure, shortened: as §1

[4] = test system: redroot pigweed (Amaranthus retroflexus); assay: Test G Pre-Emergence Protocol; settings: Amaranthus retroflexus, pre-emergence, 312 h, evaluated after 13 days; for pest or weed control at 15.625 g/ha: 15.625 g ai/ha; for pest or weed control at 15.625 g/ha / pest or weed control at 250 g/ha: read-out: Pigweed, Redroot damage rating (100=total damage to plant; 0=no damage to plant); for pest or weed control at 62.5 g/ha: 62.5 g ai/ha, 100=total damage to plant, 0=no damage to plant, read-out: plant damage rating, Pigweed, Redroot; for pest or weed control at 250 g/ha: 250 g ai/ha
Procedure, shortened: as §1

[5] = test system: giant foxtail (Setaria faberi); assay: Test G Pre-Emergence Protocol; settings: Setaria faberi, pre-emergence, 312 h, evaluated after 13 days; for pest or weed control at 15.625 g/ha: 15.625 g ai/ha; for pest or weed control at 15.625 g/ha / pest or weed control at 250 g/ha: read-out: Foxtail, Giant damage rating (100=total damage to plant; 0=no damage to plant); for pest or weed control at 62.5 g/ha: 62.5 g ai/ha, 100=total damage to plant, 0=no damage to plant, read-out: plant damage rating, Foxtail, Giant; for pest or weed control at 250 g/ha: 250 g ai/ha
Procedure, shortened: as §1

[6] = test system: ivy-leaved morning glory (Ipomoea hederacea); assay: Test G Pre-Emergence Protocol; settings: Ipomoea, pre-emergence, 312 h, evaluated after 13 days; for pest or weed control at 15.625 g/ha: 15.625 g ai/ha, read-out: Morning-glory, Ivy-leaved damage rating (100=total damage to plant; 0=no damage to plant); for pest or weed control at 62.5 g/ha: 62.5 g ai/ha, 100=total damage to plant, 0=no damage to plant, read-out: plant damage rating, Morningglory, Ivy-leaved; for pest or weed control at 250 g/ha: 250 g ai/ha, read-out: Morningglory, Ivy-leaved damage rating (100=total damage to plant; 0=no damage to plant)
Procedure, shortened: as §1

[7] = test system: corn (Zea mays); assay: Test G Post-Emergence Protocol; settings: Zea mays, post-emergence, 312 h; for plant injury at 15.625 g/ha: 15.625 g ai/ha, evaluated after 13 days (100=total damage to plant; 0=no damage to plant), read-out: Corn damage rating; for plant injury at 62.5 g/ha: 62.5 g ai/ha, read-out: Corn damage rating (100=total damage to plant; 0=no damage to plant); for plant injury at 62.5 g/ha / plant injury at 250 g/ha: evaluated after 13 days; for plant injury at 250 g/ha: 250 g ai/ha, read-out: damage to plant, Corn (100=total damage to plant; 0=no damage to plant)
Procedure, shortened: (§2)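 Values are percent visual injury at 13 days after treatment (0 none, 100 total). Treatment was a post-emergence spray at 15.625, 62.5 or 250 g/ha on 8-day-old pot plants kept at 24/16 °C.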

[8] = test system: barnyardgrass (Echinochloa crus-galli); assay: Test G Post-Emergence Protocol; settings: Echinochloa crus-galli, post-emergence, 312 h; for pest or weed control at 15.625 g/ha: 15.625 g ai/ha, evaluated after 13 days (100=total damage to plant; 0=no damage to plant), read-out: Barnyardgrass damage rating; for pest or weed control at 62.5 g/ha: 62.5 g ai/ha, read-out: Barnyardgrass damage rating (100=total damage to plant; 0=no damage to plant); for pest or weed control at 62.5 g/ha / pest or weed control at 250 g/ha: evaluated after 13 days; for pest or weed control at 250 g/ha: 250 g ai/ha, read-out: damage to plant, Barnyardgrass (100=total damage to plant; 0=no damage to plant)
Procedure, shortened: as §2

[9] = test system: velvetleaf (Abutilon theophrasti); assay: Test G Post-Emergence Protocol; settings: Abutilon theophrasti, post-emergence, 312 h; for pest or weed control at 15.625 g/ha: 15.625 g ai/ha, evaluated after 13 days (100=total damage to plant; 0=no damage to plant), read-out: Velvetleaf damage rating; for pest or weed control at 62.5 g/ha: 62.5 g ai/ha, read-out: Velvetleaf damage rating (100=total damage to plant; 0=no damage to plant); for pest or weed control at 62.5 g/ha / pest or weed control at 250 g/ha: evaluated after 13 days; for pest or weed control at 250 g/ha: 250 g ai/ha, read-out: damage to plant, Velvetleaf (100=total damage to plant; 0=no damage to plant)
Procedure, shortened: as §2

[10] = test system: redroot pigweed (Amaranthus retroflexus); assay: Test G Post-Emergence Protocol; settings: Amaranthus retroflexus, post-emergence, 312 h; for pest or weed control at 15.625 g/ha: 15.625 g ai/ha, evaluated after 13 days (100=total damage to plant; 0=no damage to plant), read-out: Pigweed, Redroot damage rating; for pest or weed control at 62.5 g/ha: 62.5 g ai/ha, read-out: Pigweed, Redroot damage rating (100=total damage to plant; 0=no damage to plant); for pest or weed control at 62.5 g/ha / pest or weed control at 250 g/ha: evaluated after 13 days; for pest or weed control at 250 g/ha: 250 g ai/ha, read-out: damage to plant, Pigweed, Redroot (100=total damage to plant; 0=no damage to plant)
Procedure, shortened: as §2

[11] = test system: giant foxtail (Setaria faberi); assay: Test G Post-Emergence Protocol; settings: Setaria faberi, post-emergence, 312 h; for pest or weed control at 15.625 g/ha: 15.625 g ai/ha, evaluated after 13 days (100=total damage to plant; 0=no damage to plant), read-out: Foxtail, Giant damage rating; for pest or weed control at 62.5 g/ha: 62.5 g ai/ha, read-out: Foxtail, Giant damage rating (100=total damage to plant; 0=no damage to plant); for pest or weed control at 62.5 g/ha / pest or weed control at 250 g/ha: evaluated after 13 days; for pest or weed control at 250 g/ha: 250 g ai/ha, read-out: damage to plant, Foxtail, Giant (100=total damage to plant; 0=no damage to plant)
Procedure, shortened: as §2

[12] = test system: ivy-leaved morning glory (Ipomoea hederacea); assay: Test G Post-Emergence Protocol; settings: Ipomoea, post-emergence, 312 h; for pest or weed control at 15.625 g/ha: 15.625 g ai/ha, evaluated after 13 days (100=total damage to plant; 0=no damage to plant), read-out: Morningglory, Ivy-leaved damage rating; for pest or weed control at 62.5 g/ha: 62.5 g ai/ha, read-out: Morningglory, Ivy-leaved damage rating (100=total damage to plant; 0=no damage to plant); for pest or weed control at 62.5 g/ha / pest or weed control at 250 g/ha: evaluated after 13 days; for pest or weed control at 250 g/ha: 250 g ai/ha, read-out: damage to plant, Morningglory, Ivy-leaved (100=total damage to plant; 0=no damage to plant)
Procedure, shortened: as §2

| SMILES | plant injury at 15.625 g/ha [1] [%] | plant injury at 62.5 g/ha [1] [%] | plant injury at 250 g/ha [1] [%] | pest or weed control at 15.625 g/ha [2] [%] | pest or weed control at 62.5 g/ha [2] [%] | pest or weed control at 250 g/ha [2] [%] | pest or weed control at 15.625 g/ha [3] [%] | pest or weed control at 62.5 g/ha [3] [%] | pest or weed control at 250 g/ha [3] [%] | pest or weed control at 15.625 g/ha [4] [%] | pest or weed control at 62.5 g/ha [4] [%] | pest or weed control at 250 g/ha [4] [%] | pest or weed control at 15.625 g/ha [5] [%] | pest or weed control at 62.5 g/ha [5] [%] | pest or weed control at 250 g/ha [5] [%] | pest or weed control at 15.625 g/ha [6] [%] | pest or weed control at 62.5 g/ha [6] [%] | pest or weed control at 250 g/ha [6] [%] | plant injury at 15.625 g/ha [7] [%] | plant injury at 62.5 g/ha [7] [%] | other results |
| --- | --- | --- | --- | --- | --- | --- | --- | --- | --- | --- | --- | --- | --- | --- | --- | --- | --- | --- | --- | --- | --- |
| Cc1c(Cl)cccc1NC(=O)[C@@H]1C(=O)N(C)C[C@H]1c1ccc(C(F)(F)F)cc1 (racemic) [Compound 1607] | 0 | 0 | 10 | 0 | 40 | 80 | 0 | 0 | 20 | 0 | 20 | 30 | 50 | 80 | 80 | 0 | 10 | 20 | 0 | 0 | plant injury at 250 g/ha [7]: 60%; pest or weed control at 15.625 g/ha [8]: 0%; pest or weed control at 62.5 g/ha [8]: 50%; pest or weed control at 250 g/ha [8]: 60%; pest or weed control at 15.625 g/ha [9]: 10%; pest or weed control at 62.5 g/ha [9]: 30%; pest or weed control at 250 g/ha [9]: 40%; pest or weed control at 15.625 g/ha [10]: 0%; pest or weed control at 62.5 g/ha [10]: 40%; pest or weed control at 250 g/ha [10]: 70%; pest or weed control at 15.625 g/ha [11]: 50%; pest or weed control at 62.5 g/ha [11]: 80%; pest or weed control at 250 g/ha [11]: 80%; pest or weed control at 15.625 g/ha [12]: 20%; pest or weed control at 62.5 g/ha [12]: 30%; pest or weed control at 250 g/ha [12]: 60% |
| CN1C[C@@H](c2ccc(C(F)(F)F)cc2)[C@H](C(=O)Nc2ccsc2)C1=O (racemic) [Compound 1611] | 0 | 0 | 0 | 0 | 0 | 0 | 0 | 0 | 0 | 0 | 0 | 0 | 0 | 0 | 0 | 0 | 0 | 0 | 0 | 0 | plant injury at 250 g/ha [7]: 0%; pest or weed control at 15.625 g/ha [8]: 0%; pest or weed control at 62.5 g/ha [8]: 0%; pest or weed control at 250 g/ha [8]: 0%; pest or weed control at 15.625 g/ha [9]: 0%; pest or weed control at 62.5 g/ha [9]: 0%; pest or weed control at 250 g/ha [9]: 0%; pest or weed control at 15.625 g/ha [10]: 0%; pest or weed control at 62.5 g/ha [10]: 0%; pest or weed control at 250 g/ha [10]: 0%; pest or weed control at 15.625 g/ha [11]: 0%; pest or weed control at 62.5 g/ha [11]: 0%; pest or weed control at 250 g/ha [11]: 0%; pest or weed control at 15.625 g/ha [12]: 0%; pest or weed control at 62.5 g/ha [12]: 0%; pest or weed control at 250 g/ha [12]: 0% |
